Assay results: patent US9809623B2, “α4β7 peptide monomer and dimer antagonists” (Protagonist Therapeutics, Inc., priority 2014, dated 2017)
Read-outs that look alike come from different tables or passages of the source. Numbered stars: 1 amine (or outer) side, 2 acyl side, 3 side chain; on linkers, the order of the positions; unused ones are H or OH. Bridge positions count the residues as written; N and C are the ends. Square brackets hold non-standard residues; d marks the D form. Peptide text beside a SMILES is read from it. I, II: the chains in the order shown. Phe(4-COOH) = N[C@@H](Cc1ccc(C(=O)O)cc1)C(=O)O; Phe(4-tBu) = CC(C)(C)c1ccc(C[C@H](N)C(=O)O)cc1; 2Nal = N[C@@H](Cc1ccc2ccccc2c1)C(=O)O; Diglycolyl = O=C(COCC(=O)[*:2])[*:1]; NMeR = CN[C@@H](CCCNC(=N)N)C(=O)O; β3hE = N[C@@H](CCC(=O)O)CC(=O)O; NMeK = CN[C@@H](CCCCN)C(=O)O; Pen = CC(C)(S)[C@H](N)C(=O)O

Tests used:
[1] = Simulated Intestinal Fluid (SIF) Stability Assay; assay type: in vitro ADME, porcine; details: pig, simulated intestinal fluid (SIF) with 1% porcine pancreatin
Procedure, shortened: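 Peptides (22 μM final) incubated at 37 °C in FASSIF (pH 6.5) with 1% porcine pancreatin; aliquots quenched at various times and analyzed by LC-MS/MS against internal standard. Half-life from first-order exponential decay fit of percent remaining.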

[2] = Simulated Gastric Fluid (SGF) Assay; assay type: in vitro ADME; details: pig, simulated gastric fluid (SGF) with porcine pepsin, pH 2; Table 4-C, t1/2
Protocol: SGF was prepared by adding 20 mg NaCl, 32 mg porcine pepsin (MP Biochemicals, catalog 02102599), and 70 μl HCl to 10 ml water (final pH=2). Aliquots of SGF (0.5 ml each) were pre-warmed at 37° C. For each peptide tested, to start the reaction, 1 μl of peptide stock solution (10 mM in DMSO) was added to 0.5 ml SGF and thoroughly mixed such that the final peptide concentration was 20 μM. The reactions were incubated at 37° C. with gentle shaking. At each time point (0, 15, 30, 60 min), 50 μl aliquots were removed and added to 200 ul acetonitrile containing 0.1% formic acid to quench the reaction. Samples were stored at 4° C. until the end of the experiment and centrifuged at 10,000 rpm for 5 minutes. Aliquots of the supernatant were removed, diluted 1:1 into distilled water containing internal standard, and analyzed by LCMS/MS. Percent remaining at each timepoint was calculated based on the peak area response ratio of test compound to internal standard. Time 0 was set to 100%, and all later timepoints were calculated relative to time 0. Half-lives were calculated by fitting to a first-order exponential decay equation using GraphPad.

[3] = Dithiothreitol (DTT) Redox Stability Assay; assay type: physicochemical; details: Table 4-C, t1/2, 0.5 mM DTT
Protocol: For each peptide tested, the DTT stability assay was conducted by adding 5 μl of a 10 mM peptide stock solution in DMSO to 1 ml of 100 mM Tris-Cl, pH 7.5 (final peptide concentration is 50 μM). At time 0 min, 5 ul of a freshly thawed 100 mM DTT solution was added to the incubation tube containing the peptide, such that the final DTT concentration was 0.5 mM. The reactions were incubated at room temperature. At different time points up to 120 minutes (20 min, 40 min, 80 min, 120 min), 50 ul aliquots were removed, and the reaction was quenched by adding 10 μl of 5M acetic acid. To measure disappearance of the parent peptide, the quenched samples (30 μl) were analyzed by reverse phase HPLC and UV absorbance at 220 nm. The fraction oxidized remaining was graphed versus time, and half-lives were calculated by fitting to a first-order exponential decay equation using Excel.

[4] = biological target: α4β7 (Homo sapiens, UniProt P13612+P26010); experiment: PBMC Memory T Cell Adhesion Assay, adhesion to MAdCAM-1; assay type: cell-based; details: Table 3-B; range classes; read-out: PBMC IC50
Protocol: Fresh CD4+/CD45RO+ memory T cells were isolated from human peripheral blood mononuclear cell (PBMC) donors by Aragen Bioscience Inc. (Morgan Hill, Calif.). The assay plate was prepared using IgG Fc capture antibody (donkey anti human) immobilized at 500 ng/well in 50 mM sodium bicarbonate buffer, pH 9.5, ON, 4C onto a Greiner Fluotrac plate (100 ul per well). The plate was rinsed two time with Blocking Buffer (25 mM Tris HCl, pH7.5, 150 mM NaCl, 1.5% BSA, 0.05% Tween), and blocked with Blocking Buffer for 2 hours at 37 C or 5 hours at RT using 200 ul per well. The Blocking Buffer was removed and either MAdCAM-1 or VCAM-1 at 400 ng/well in Blocking Buffer was added and the plate incubated overnight at 4C (100 ul per well). The plate was washed two times with Blocking Buffer, and rinsed once with 200 ul Binding Media (DMEM phenol red free, 10 mM HEPES, 1×Na pyruvate, 1× Glutamine, and supplemented with 1 mM MnCl2 prior to use). To prepare cells, approximately 25 million CD4+/CD45RO+ memory T cells were counted by trypan blue exclusion using a haemocytometer to determine viability and cell count. The cells were transferred to a 50 ml conical tube, and centrifuged at 1200 rpm for 10 minute. The media was aspirated and the cell pellet resuspended in 15 ml Binding Media. The cells were centrifuged again and resuspended in the appropriate amount of Binding Media to be used for assays (50 ul of cells per well at 2× the final density). To each well, and equal volume (50 ul) of test compound was added and the plate was incubated for 1.5 hours at 37 C, 5% CO2. Each well was rinsed 3× with 150 ul per well of Binding Media. […] The plate was incubated at 37 C, 5% CO2, for 45 minutes. The plate was protected from light by using black adhesive seals. Fluorescence intensity was measured using a Molecular Devices Gemini EM Fluorescent Plate Reader (Ex 485/Em530, Bottom Read, Reading Sensitivity=20). IC50 curves are generated using Graph Pad Prism and the curves analyzed using analyzed using a non-linear regression (four parameters) algorithm. The log (concentration) versus RFU (Ex485/Em530) was plotted to determine IC50 values.

[5] = pH 6.5, Table 4-C, t1/2, > means assay stopped at that time, read-out: SIF (porcine) Min
[6] = pH 6.5, Table 3-B, > means experiment was stopped at that time and half life was not reached, read-out: Stabilty SIF t1/2

Chain of α4β7 (P13612 34-1032): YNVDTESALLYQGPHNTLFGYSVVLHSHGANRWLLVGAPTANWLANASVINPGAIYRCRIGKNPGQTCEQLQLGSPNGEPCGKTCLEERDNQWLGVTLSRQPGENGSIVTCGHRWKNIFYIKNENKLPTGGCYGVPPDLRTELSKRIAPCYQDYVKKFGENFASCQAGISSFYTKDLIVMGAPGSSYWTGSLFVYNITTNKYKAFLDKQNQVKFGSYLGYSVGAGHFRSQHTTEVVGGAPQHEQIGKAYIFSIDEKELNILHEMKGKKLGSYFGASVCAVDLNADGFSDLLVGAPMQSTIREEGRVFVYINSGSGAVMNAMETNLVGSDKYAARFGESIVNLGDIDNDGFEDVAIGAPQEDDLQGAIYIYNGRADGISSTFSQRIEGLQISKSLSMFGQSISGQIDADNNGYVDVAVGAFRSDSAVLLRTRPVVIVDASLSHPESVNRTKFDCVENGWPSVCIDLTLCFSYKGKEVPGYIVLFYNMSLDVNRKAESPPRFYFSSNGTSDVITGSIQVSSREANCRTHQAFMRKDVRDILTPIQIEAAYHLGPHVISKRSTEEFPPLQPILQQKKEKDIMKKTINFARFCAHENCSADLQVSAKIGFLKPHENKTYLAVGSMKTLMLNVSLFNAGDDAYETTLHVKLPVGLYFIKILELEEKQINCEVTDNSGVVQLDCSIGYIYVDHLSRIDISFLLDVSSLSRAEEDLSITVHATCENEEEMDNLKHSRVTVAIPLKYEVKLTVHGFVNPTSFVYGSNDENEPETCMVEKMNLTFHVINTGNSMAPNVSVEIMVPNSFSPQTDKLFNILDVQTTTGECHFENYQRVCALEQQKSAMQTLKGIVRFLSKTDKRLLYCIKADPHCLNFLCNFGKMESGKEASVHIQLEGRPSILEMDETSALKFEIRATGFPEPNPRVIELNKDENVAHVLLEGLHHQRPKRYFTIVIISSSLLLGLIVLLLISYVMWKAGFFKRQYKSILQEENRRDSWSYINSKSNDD
Chain of α4β7 (P26010 20-798): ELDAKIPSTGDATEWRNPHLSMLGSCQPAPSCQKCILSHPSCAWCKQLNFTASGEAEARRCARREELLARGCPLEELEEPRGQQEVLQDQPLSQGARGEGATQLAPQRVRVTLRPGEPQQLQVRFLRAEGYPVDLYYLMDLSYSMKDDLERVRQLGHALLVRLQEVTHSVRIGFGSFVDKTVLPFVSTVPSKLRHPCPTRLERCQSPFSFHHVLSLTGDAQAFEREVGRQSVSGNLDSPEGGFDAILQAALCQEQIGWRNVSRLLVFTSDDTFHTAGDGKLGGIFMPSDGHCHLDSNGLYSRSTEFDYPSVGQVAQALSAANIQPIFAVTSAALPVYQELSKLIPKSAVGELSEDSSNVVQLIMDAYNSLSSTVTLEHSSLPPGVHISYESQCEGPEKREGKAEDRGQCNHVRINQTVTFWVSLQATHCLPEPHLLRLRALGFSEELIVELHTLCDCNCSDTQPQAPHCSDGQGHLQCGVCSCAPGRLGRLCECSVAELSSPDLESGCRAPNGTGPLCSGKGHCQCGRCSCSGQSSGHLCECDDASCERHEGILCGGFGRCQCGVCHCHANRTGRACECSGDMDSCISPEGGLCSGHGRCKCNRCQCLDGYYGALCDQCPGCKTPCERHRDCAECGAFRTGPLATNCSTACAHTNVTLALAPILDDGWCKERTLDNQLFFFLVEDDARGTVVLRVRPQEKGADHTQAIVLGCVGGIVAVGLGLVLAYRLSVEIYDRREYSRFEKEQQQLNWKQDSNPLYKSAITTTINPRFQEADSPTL

Row | Structure (SMILES) | half-life at 22 μM [1, 5] [min] | half-life at 20 μM [2] [min] | DTT Min [3] [min] | IC50 [4] [nM] | half-life at 22 μM [1, 6] [min]
1 | CC(=O)N[C@H]1CSSC[C@@H](C(=O)NCC(=O)N[C@@H](CCC(=O)O)C(=O)N[C@@H](CCCCN)C(=O)O)NC(=O)[C@H](CC(C)C)NC(=O)[C@H]([C@@H](C)O)NC(=O)[C@H](CC(=O)O)NC(=O)[C@H](CO)NC(=O)[C@H](CCCNC(=N)N)N(C)C1=O [compound 199, Ac-C-N-Me-R-S-D-T-L-C-G-E-K-OH] (Ac-C[NMeR]SDTLCGEK-OH; disulfide 1-7) | 27 | > 360 |  |  | 
2 | CC(=O)N[C@H]1CSSC(C)(C)[C@@H](C(=O)N[C@@H](CCC(=O)O)C(=O)N[C@H](CCCCNC(=O)COCC(=O)NCCCC[C@@H](NC(=O)[C@H](CCC(=O)O)NC(=O)[C@H]2NC(=O)[C@H](CC(C)C)NC(=O)[C@H]([C@@H](C)O)NC(=O)[C@H](CC(=O)O)NC(=O)[C@H](CO)NC(=O)[C@H](CCCNC(=N)N)N(C)C(=O)[C@@H](NC(C)=O)CSSC2(C)C)C(N)=O)C(N)=O)NC(=O)[C@H](CC(C)C)NC(=O)[C@H]([C@@H](C)O)NC(=O)[C@H](CC(=O)O)NC(=O)[C@H](CO)NC(=O)[C@H](CCCNC(=N)N)N(C)C1=O [compound 205, (Ac-C-N-Me-R-S-D-T-L-Pen-E-k-NH2)2-DIG] (I: Ac-C[NMeR]SDTL[Pen]E[dK]-NH2 / II: Ac-C[NMeR]SDTL[Pen]E[dK]-NH2; disulfide I:1-I:7, II:1-II:7 (inferred); linker I:9-II:9 via Diglycolyl (inferred)) | > 360 |  | 42 |  | 
3 | CC(=O)N[C@H]1CSSC[C@@H](C(=O)NCC(=O)N[C@@H](CCC(=O)O)C(N)=O)NC(=O)[C@H](CC(C)C)NC(=O)[C@H]([C@@H](C)O)NC(=O)[C@H](CC(=O)O)NC(=O)[C@H](CO)NC(=O)[C@H](CCCNC(=N)N)NC1=O [compound 194, Ac-C-R-S-D-T-L-C-G-E-NH2] (Ac-CRSDTLCGE-NH2; disulfide 1-7) | < 1 |  | 5.5 |  | 
4 | CC(=O)N[C@H]1CSSC(C)(C)[C@@H](C(=O)N[C@H](CCCCN)C(N)=O)NC(=O)[C@H](CC(C)C)NC(=O)[C@H]([C@@H](C)O)NC(=O)[C@H](CC(=O)O)NC(=O)[C@H](CO)NC(=O)[C@H](CCCNC(=N)N)N(C)C1=O [compound 202, Ac-C-N-Me-R-S-D-T-L-Pen-k-NH2] (Ac-C[NMeR]SDTL[Pen][dK]-NH2; disulfide 1-7) | > 360 |  | 42 |  | 
5 | CC(=O)N[C@@H]1C(=O)N(C)[C@@H](CCCNC(=N)N)C(=O)N[C@@H](CO)C(=O)N[C@@H](CC(=O)O)C(=O)N[C@@H]([C@@H](C)O)C(=O)N[C@@H](CC(C)C)C(=O)N[C@H](C(=O)N[C@@H](Cc2ccc3ccccc3c2)C(=O)N[C@@H](CCC(=O)O)C(=O)N[C@H](CCCCN)C(N)=O)C(C)(C)SSC1(C)C [compound 210, Ac-Pen-N-Me-R-S-D-T-L-Pen-2-Nal-E-k-NH2] (Ac-[Pen][NMeR]SDTL[Pen][2Nal]E[dK]-NH2; disulfide 1-7) | > 300 |  | >120 |  | 
6 | CC(=O)N[C@H]1CSSC[C@@H](C(=O)NCC(=O)N[C@@H](CCC(=O)O)C(N)=O)NC(=O)[C@H](CC(C)C)NC(=O)[C@H]([C@@H](C)O)NC(=O)[C@H](CC(=O)O)NC(=O)[C@H](CO)NC(=O)[C@H](CCCNC(=N)N)N(C)C1=O [compound 198, Ac-C-N-Me-R-S-D-T-L-C-G-E-NH2] (Ac-C[NMeR]SDTLCGE-NH2; disulfide 1-7) |  |  | 4.5 |  | 
7 | CC(=O)N[C@@H]1C(=O)N(C)[C@@H](CCCNC(=N)N)C(=O)N[C@@H](CO)C(=O)N[C@@H](CC(=O)O)C(=O)N[C@@H]([C@@H](C)O)C(=O)N[C@@H](CC(C)C)C(=O)N[C@H](C(=O)N[C@@H](Cc2ccc(C(C)(C)C)cc2)C(=O)N[C@@H](CCC(=O)O)CC(=O)N(C)[C@@H](CCCCNC(=O)COCC(=O)NCCCC[C@@H](C(N)=O)N(C)C(=O)C[C@H](CCC(=O)O)NC(=O)[C@H](Cc2ccc(C(C)(C)C)cc2)NC(=O)[C@H]2NC(=O)[C@H](CC(C)C)NC(=O)[C@H]([C@@H](C)O)NC(=O)[C@H](CC(=O)O)NC(=O)[C@H](CO)NC(=O)[C@H](CCCNC(=N)N)N(C)C(=O)[C@@H](NC(C)=O)C(C)(C)SSC2(C)C)C(N)=O)C(C)(C)SSC1(C)C [compound 149] (I: Ac-[Pen][NMeR]SDTL[Pen][Phe(4-tBu)][β3hE][NMeK]-NH2 / II: Ac-[Pen][NMeR]SDTL[Pen][Phe(4-tBu)][β3hE][NMeK]-NH2; disulfide I:1-I:7, II:1-II:7; linker I:10-II:10 via Diglycolyl) |  |  |  | < 10 | > 300
8 | CC(=O)N[C@@H]1C(=O)N(C)[C@@H](CCCNC(=N)N)C(=O)N[C@@H](CO)C(=O)N[C@@H](CC(=O)O)C(=O)N[C@@H]([C@@H](C)O)C(=O)N[C@@H](CC(C)C)C(=O)N[C@H](C(=O)N[C@@H](Cc2ccc(C(=O)O)cc2)C(=O)N[C@@H](CCC(=O)O)C(=O)N(C)[C@@H](CCCCNC(=O)COCC(=O)NCCCC[C@@H](C(N)=O)N(C)C(=O)[C@H](CCC(=O)O)NC(=O)[C@H](Cc2ccc(C(=O)O)cc2)NC(=O)[C@H]2NC(=O)[C@H](CC(C)C)NC(=O)[C@H]([C@@H](C)O)NC(=O)[C@H](CC(=O)O)NC(=O)[C@H](CO)NC(=O)[C@H](CCCNC(=N)N)N(C)C(=O)[C@@H](NC(C)=O)C(C)(C)SSC2(C)C)C(N)=O)C(C)(C)SSC1(C)C [compound 147] (I: Ac-[Pen][NMeR]SDTL[Pen][Phe(4-COOH)]E[NMeK]-NH2 / II: Ac-[Pen][NMeR]SDTL[Pen][Phe(4-COOH)]E[NMeK]-NH2; disulfide I:1-I:7, II:1-II:7; linker I:10-II:10 via Diglycolyl) |  |  |  | < 10 | > 300
9 | CC(=O)N[C@H]1CSSC[C@@H](C(N)=O)NC(=O)[C@H](CC(C)C)NC(=O)[C@H]([C@@H](C)O)NC(=O)[C@H](CC(=O)O)NC(=O)[C@H](CO)NC(=O)[C@H](CCCNC(=N)N)NC1=O [compound 195, Ac-C-R-S-D-T-L-C-NH2] (Ac-CRSDTLC-NH2; disulfide 1-7) | < 1 |  | 4.7 |  | 
